Test results: publication PMC10819767, “An ADAM10 Exosite Inhibitor Is Efficacious in an In Vivo Collagen-Induced Arthritis Model” (Pharmaceuticals, 2024)

Test system: collagen-induced arthritis (CIA) model
Test: CIA mouse model: clinical arthritis score and paw swelling
Type: in vivo, C57 BL/6 mice
Conditions: for disease score: scale 0–4
Procedure: In vivo efficacy in the CIA mouse model. All animal studies were conducted in accordance with NSU IACUC guidelines. Study protocol #2021.04.DM5 was approved by NSU IACUC before the commencement of the studies. CID 3117694 and indomethacin were ground with a small amount of the dispersing agent (0.5% HPMC (3 cP)–0.5% Tween 80) using a mortar and a pestle and mixed repeatedly to form a smooth paste. The paste was moved to a graduated cylinder and filled up to the required volume with the dispersing agent to form a suspension, as described elsewhere. The test compound (10, 30, and 50 mg/kg) and indomethacin (2.5 mg/kg) were administered with a mouse gavage needle (gauge no: 18, BD, catalog number: 653902) through the oral route as a suspension with a 5 mL/kg dose volume (from day 0 to day 28). In this study, 6–8-week-old C57 BL/6 mice from Charles River (male and female) were used. Animals were randomly assigned to one of the following six groups: (1) normal (non-RA control), (2) RA control untreated, (3) RA control treated with 2.5 mg/kg/day indomethacin, and 3 test groups (CID 3117694 (10 mg/kg/day, 30 mg/kg/day, and 50 mg/kg/day)) to provide an estimate for the lead compound’s efficacy range. Each group had three males and three females assigned to the control for gender-based differences. Arthritis was induced in the right paws of the mice under anaesthesia. The left paw of the mice was used as a control. A total of 10 µL collagen from bovine (type II collagen) nasal septum emulsion (2 mg/mL) was injected into the right knee joint with a glass Hamilton syringe and 25 G needles for intraarticular (i.a.) injection, followed by a total of 100 µL Complete Freund’s adjuvant (CFA) emulsion was injected at the back of mice using a syringe with 25 G needles subcutaneously (s.c.). On day 14 after the first injection, the mice were injected, i.e., with 10 µL of collagen from the bovine nasal septum ([…]) and s.c. with a 100 µL CFA emulsion for a boost injection. Arthritis progression was monitored using a clinical arthritis scoring system (0–4), and paw swelling was measured with the help of a plethysmograph on days 0, 14, 21, and 28 after the induction of arthritis. […] After the administration of a primary dose of collagen from the bovine nasal septum, CFA scoring was assessed. Measurements were taken on days 0, 14, 21, and 28 after the induction of arthritis in induced paws (right paw) and non-arthritis paws (left paw). CID 3117694 (10 mg/kg/day, 30 mg/kg/day, and 50 mg/kg/day) and pharmacological control (indomethacin 2.5 mg/kg/day) treatment were given every day for 28 days beginning from day 1 via oral gavage in hydroxy-propyl-methyl cellulose (HPMC) suspension.

For `COc1cccc(C(=O)NNC(=O)C(=O)Nc2ccc(C)c(Cl)c2)c1` [CID 3117694], the “paw swelling vs normal control (in words)” value (50 mg/kg/day) was “decreased the swelling to the level of the normal control”, the disease score (day 21, 10 mg/kg oral) was 4 and the disease score (day 21, 30 mg/kg oral) was “three”. For the same compound, the disease score (day 21, 50 mg/kg oral) was 2, the disease score (day 28, 10 mg/kg oral) was 2 and the disease score (day 28, 30 mg/kg oral) was 2. It also gave a disease score (day 28, 50 mg/kg oral) of 1.
